From patent US20260022118A1, “HETEROCYCLIC COMPOUNDS AS NRAS INHIBITORS” (Board of Regents, The University of Texas System, priority 2023, published 2026)

How the values were obtained:
[1] = target: NRAS G12D C118S (Homo sapiens (Human), UniProt P01111, C118S/G12D); assay: NRas G12D Surface Plasmon Resonance (SPR) binding assay; details: Avi-tagged biotinylated NRAS G12D C118S on streptavidin chip, 25° C., 1:1 kinetic or steady-state fit
Outline: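 Biotinylated Avi-tagged NRAS G12D C118S was captured at about 600 RU on a streptavidin chip alongside a blank reference channel. Compounds were run as 10-point 1:3 dilution series in HBS-P+ pH 7.4 with 5 mM MgCl2 and 3% DMSO, using a 2–4% DMSO solvent correction. A control compound at 10 μM was injected periodically to check protein activity.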

[2] = test system: THP-1 cells expressing G12D (NRAS G12D); assay: Inhibition of NRAS G12D-mediated phosphorylation of ERK (AlphaLISA p-ERK1/2) in THP-1 cells; assay type: cell-based; details: Homo sapiens, THP-1, 2 h, 2 hours incubation, HBSS with 0% or 10% FBS, p-ERK1/2 (Thr202/Tyr204) AlphaLISA, read-out: pERK THP-1 IC50
Outline: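 THP-1 cells expressing NRAS G12D, seeded in HBSS with 0% or 10% FBS, were exposed to test compound (1% DMSO final) for 2 h. p-ERK1/2 (Thr202/Tyr204) read by AlphaLISA SureFire Ultra. IC50 from curves normalized to no-inhibitor (100%) and 1 μM trametinib (0%) controls.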

Sequence of NRAS G12D C118S (P01111 whole entry G12D/C118S): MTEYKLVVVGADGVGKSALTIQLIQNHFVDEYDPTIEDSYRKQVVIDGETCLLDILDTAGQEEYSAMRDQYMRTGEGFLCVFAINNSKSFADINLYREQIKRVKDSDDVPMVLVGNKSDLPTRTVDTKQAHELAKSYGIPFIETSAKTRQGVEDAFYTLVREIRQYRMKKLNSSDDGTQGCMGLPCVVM

| Kd [1] [nM] | IC50 [2] [nM] | SMILES |
| --- | --- | --- |
| 488 | > 50000 | C#Cc1c(F)ccc2cc(O)cc(-c3ncc4c(C5[C@H]6CNC[C@@H]56)cn(CCO)c4c3F)c12 (stereo partly drawn) [Example 103, 4-(3-((1R,5S)-3-azabicyclo[3.1.0]hexan-6-yl)-7-fluoro-1-(2-hydroxyethyl)-1H-pyrrolo[3,2-c]pyridin-6-yl)-5-ethynyl-6-fluoronaphthalen-2-ol] |
| 1170 | 12500 | C#Cc1c(F)ccc2cc(O)cc(-c3ncc4c([C@H]5[C@@H]6CNC[C@@H]65)nn([C@@H]5C[C@@H]5C)c4c3F)c12 [Example 104, 4-(3-((1R,5S,6r)-3-azabicyclo[3.1.0]hexan-6-yl)-7-fluoro-1-((1R,2S)-2-methylcyclopropyl)-1H-pyrazolo[4,3-c]pyridin-6-yl)-5-ethynyl-6-fluoronaphthalen-2-ol] |
| 18.5 | 515 | C#Cc1c(F)ccc2cc(O)cc(-c3ncc4c(N5CC6CCC5CN6)nn(C5CC5)c4c3F)c12 (centres unmarked) [Example 105, 4-(3-(2,5-diazabicyclo[2.2.2]octan-2-yl)-1-cyclopropyl-7-fluoro-1H-pyrazolo[4,3-c]pyridin-6-yl)-5-ethynyl-6-fluoronaphthalen-2-ol] |
| 9.39 | 163 | C#Cc1c(F)ccc2cc(O)cc(-c3ncc4c(N5C[C@@H]6CC[C@H]5CN6)nn(C5CC5)c4c3F)c12 [Example 106, 4-(3-((1S,4S)-2,5-diazabicyclo[2.2.2]octan-2-yl)-1-cyclopropyl-7-fluoro-1H-pyrazolo[4,3-c]pyridin-6-yl)-5-ethynyl-6-fluoronaphthalen-2-ol] |
